Experimental data: patent publication US12357611B2, “Sulcardine administration for treatment of acute atrial fibrillation” (HUYABIO International, LLC, priority 2018, dated 2025)
Where a name gives a salt, the structure may show the parent alone.

How the values were obtained:
[1] = Phase 1 single ascending iv dose trial: pharmacokinetics (plasma sulcardine); assay type: in vivo, human; conditions: iv infusion, various dosages, FIG. 1
Method: (§1) HBI-3000 (sulcardine sulfate) was administered to human subjects according to the protocol provided in ClinicalTrials.gov Identifier: NCT03397641. That protocol is incorporated herein by reference in its entirety.
(§2) Objective: Provided herein are the safety, tolerability, pharmacokinetics and electrocardiogram (ECG) results of a Phase 1 single ascending dose trial of intravenous (iv) HBI-3000 in healthy subjects.
(§3) Methods: […] subjects were randomized to 6 cohorts of 8 subjects to receive 1 of 5 single ascending iv doses (Table 2) of HBI-3000 or placebo (6:2), with 2 cohorts receiving the 600 mg dose. Doses of RBI-3000 ranged from 20 mg (Cohort A), 60 mg (Cohort B), 180 mg (Cohort C), 360 mg (Cohort D), to 600 mg (Cohort E and F). Drug was a lyophilized powder, reconstituted to […] then diluted in saline for delivery via intravenous infusion as a 50 mL solution over 30 minutes.

[2] = tested on: healthy subjects; assay: Phase 1 single ascending iv dose trial: continuous 12-lead Holter ECG, baseline and placebo subtracted (ΔΔ) ECG intervals at Cmax; assay type: in vivo, human; conditions: single iv doses 20 to 600 mg
Method: as §1, §2, §3
Continuous 12-lead Holter ECG data were recorded at baseline and 11 time points thereafter. Mean baseline and placebo subtracted (ΔΔ) ECG intervals (QTcF, HR, PR, QRS, and P-wave duration [PDur]) and T-wave segments (J to T peak [JTp] and T peak to T end [TpTe]) were calculated at Cmax for each dose.
Table 2 summarizes ECG data at Cmax for each dose, as predicted by mixed-effects modeling. […] The increases in QRS and PDur are consistent with block of INa-Peak. […]

[3] = tested on: healthy subjects; assay: Phase 1 single ascending iv dose trial: safety and tolerability; assay type: in vivo; conditions: single iv doses 20 to 600 mg
Method: as §1, §2, §3

[4] = Chen et al.; cited from earlier work

SMILES	removal from plasma after Cmax ([1]; listed as sulcardine sulfate)	dose dependence of ECG parameter changes [2]	tolerability, dose limiting adverse events or arrhythmias [3]	half-life for oral administration [4]	removal from plasma after Cmax [1]
COc1ccc(S(=O)(=O)NCc2cc(CN3CCCC3)c(O)c(CN3CCCC3)c2)cc1 [HBI-3000, sulcardine sulfate]	quickly removed or isolated from plasma	dose-proportional changes in all ECG parameters	well tolerated with no dose limiting adverse events or arrhythmias observed		
COc1ccc(S(=O)(=O)NCc2cc(CN3CCCC3)c(O)c(CN3CCCC3)c2)cc1 [sulcardine, N-[4-hydroxy-3,5-bis(1-pyrrolidinylmethyl)benzyl]-4-methoxybenzenesulfonamide]				about 16 hours	largely removed or isolated from plasma at 1.0 hours
